Experimental data taken from ChEMBL document CHEMBL3507680, “University of Dundee, Gates Library screen for HepG2 cell viability”.

test: Human HepG2 cell viability assay in 384 well format; type: toxicity, cell-based; parameters: dose 125 nL, time 70.5 hour; cytotoxicity at 70.5 h: concentration not given beside the values; settings: HepG2 cells, read-out: Inhibition

Row | Structure (SMILES) | cytotoxicity at 70.5 h [%]
1 | Cc1noc(CN2CC(=O)N(C)c3ccccc3C2=O)n1 | -8.97
2 | COc1ccc(C(=O)N(C)Cc2ncc(C)c(OC)c2C)c(OC)c1 | -4.31
3 | COc1ccccc1CN1CC[C@]2(C[C@H](OC)CO2)C1 | -12.6
4 | CC(C)c1nccn1C(C)C(=O)N1CCN(S(C)(=O)=O)CC1 (centres undefined) | -9.53
5 | CC(Cn1ccnc1)NC1CCN(Cc2cccc(O)c2)CC1 (centres undefined) | -4.85
6 | CC(C)CC(=O)N1CCCn2cnc(CN3CCCC3=O)c2C1 | -4.92
7 | CCCN1CCc2nc(SCc3c(C)cc(C)cc3C)[nH]c(=O)c2C1 | 4.68
8 | CNc1cccc(C2CCCN(C(=O)c3ccn(C)n3)C2)n1 (centres undefined) | 16.5
9 | CCn1ncc2c1C(COC)N(C(=O)c1ccsc1)CC2 (centres undefined) | -6.73
10 | CCNC(=O)C1CN(Cc2c(-c3cc(C)on3)nn(C)c2Cl)CCO1 (centres undefined) | 2.76
11 | CS(=O)(=O)N1CCCCC12CCCN(Cc1nccs1)C2 (centres undefined) | 11.6
12 | Cn1cc(CN2CC[C@H]3OCC[C@@H](C(=O)NC4CCCC4)[C@@H]3C2)cn1 | -17.5
13 | O=C(NCCN1CCCCCC1=O)c1ccc(=O)[nH]n1 | 2.56
14 | CC1CN(Cc2cc(C#N)ccc2F)CCN1Cc1nccn1C (centres undefined) | -3.5
15 | CCN(CC)C(CNS(=O)(=O)c1ccc(C(=O)NC)cc1)c1ccco1 (centres undefined) | -8.07
16 | Cn1cc(NS(=O)(=O)c2ccc(C(F)(F)F)cc2)ccc1=O | -9.18
17 | CN1CCC(N(C)C[C@H]2CC[C@@H](Cc3cccc(O)c3)O2)CC1 | 43.7
18 | Cc1cccc(NC(=O)CN(C)C(=O)c2ccc(-n3cccc3)nc2)n1 | -4.2
19 | CS(=O)(=O)N1CCOC2(CCCN(c3cnccn3)C2)C1 (centres undefined) | -6.97
20 | NC(=O)N1C[C@H]2CN(Cc3nccs3)C[C@H]2C1 | -18.2
21 | Cn1ccnc1CNCC1CCCN1c1cccnn1 (centres undefined) | -4.3
22 | Cc1cn2c(n1)CCC(NC(=O)CCC(F)(F)F)C2 (centres undefined) | -3.72
23 | O=C1CCCCN1CCCC(=O)N1CCC2(CC1)[C@H](O)C[C@@H]2O | -4.17

Row | Structure (SMILES) | cytotoxicity at 70.5 h [%]
24 | COc1cc(C2CC(=O)Nc3c2c(=O)[nH]n3C2CCCC2)ccc1O (centres undefined) | -2.72
25 | O=C(NC1CC1)c1nnn(-c2cccc(C(F)(F)F)c2)c1C1CC1 | -8.39
26 | Cc1nn(C)c(N(C)C)c1CNC(C)c1cccc(OC(C)C)c1 (centres undefined) | -11.2
27 | Cc1ncc(CN(C)C2CCCN(Cc3noc(C4CC4)n3)C2)s1 (centres undefined) | -12.3
28 | COc1ccc2c(c1)OCC(Cc1ccc(N)cn1)C2 (centres undefined) | 2.07
29 | Cc1ccc(OCCC(=O)NC2CCc3nccn3C2)cc1 (centres undefined) | 0.164
30 | O=C(c1cccc(F)c1)N1CCC2(CC1)CN(c1ccccn1)CCO2 | -8.22
31 | N#Cc1ccccc1N1CC2(CCCCN2CC2CC2)CC1=O (centres undefined) | 7.89
32 | COc1ccccc1-c1cc(NC(=O)CCS(=O)(=O)C2CCCC2)[nH]n1 | 25.9
33 | COc1ccc(C2SCC(=O)Nc3ccsc32)cc1OC (centres undefined) | -11.5
34 | CCOC(=O)c1n[nH]cc1-c1cncn1CC(C)n1nc(C)cc1C (centres undefined) | -8.74
35 | COc1ccccc1OCC(=O)N1CCC[C@]2(C[C@@H](OC)CO2)C1 | 10.6
36 | COCCOc1ccc(NC(=O)N(CCO)C2CC2)cn1 | -10.9
37 | O=C(O)c1cc(S(=O)(=O)Nc2cccc3c2OCCO3)ccc1F | -18.2
38 | O=C1CN(c2ccc(CNC(=O)NCc3ccoc3)cc2)CCN1 | -11.8
39 | CCN1CCC2(CN(C(C)=O)CC23CCN(CC2CC2)CC3)C1=O (centres undefined) | -5.77
40 | O=C(Nc1cccnc1)[C@H]1C[C@H]2OCC[C@H]2N(C(=O)c2ccsc2)C1 | -15.4
41 | COCC1COCCC12CCN(S(=O)(=O)c1ccccc1C)CC2 (centres undefined) | 7.67
42 | CC1(C(N)=O)CN(CC2CCOCC2)CCO1 (centres undefined) | 53.2
43 | COc1cccc(C(=O)N2CCCCC2c2nccs2)c1OC (centres undefined) | 2.23
44 | CC(NCCCN1CCCC1=O)c1cc(Br)ccc1O (centres undefined) | -5.37
45 | CS(=O)(=O)Cc1ccc(C(=O)NCc2ccc(Cl)cc2Cl)cc1 | -6.11
46 | CN(C)CCN1CCCC12CCN(C(=O)c1ccoc1)CC2 | -9.15

Row | Structure (SMILES) | cytotoxicity at 70.5 h [%]
47 | NC(=O)CN1CCCN(C(=O)c2ccn(-c3ccccc3)n2)CC1 | -3.77
48 | Cc1nc(CN(Cc2ccc3c(c2)OCCO3)C2CCCC2)no1 | -7.64
49 | COCCOCC(=O)N1CCCC(c2ncc[nH]2)C1 (centres undefined) | -16.6
50 | CNC(=O)c1ccnc(CC2COc3c(cccc3OC)C2)c1 (centres undefined) | -25.4
51 | Cc1cc(C)nc(N2CCC(c3nnc(CN(C)C)n3C3CC3)CC2)n1 | -5.18
52 | CC(C)NC(=O)N1CC[C@H]2[C@H]1CCN2c1ncccn1 | -5.58
53 | CN1CCN(c2nsc(-c3cccnc3)c2C#N)CC1 | -4.14
54 | CNC(=O)CCc1cc(C)nc(C2CCN(C3CCCCC3)CC2)c1 | -0.853
55 | Cc1nnc(NC(=O)NC2CCCc3c2cnn3CCO)s1 (centres undefined) | -6.14
56 | CS(=O)(=O)NCC1CCCN(C(=O)COCC2CC2)C1 (centres undefined) | -22.4
57 | Cc1cc(C(=O)NCC(C)C)nn1C | -5.81
58 | CC(C)c1nc(-c2ccc(=O)[nH]n2)n(-c2ccc3c(c2)OCO3)n1 | -10.3
59 | COc1ccc(Br)cc1Cn1nc(C(N)=O)ccc1=O | -6.15
60 | CC(C)N1CCCC(Cc2cncc(Br)c2)CC1 (centres undefined) | -4.98
61 | Cc1ccccc1-c1cncc(C2CCN(C(=O)CN(C)C)CC2)n1 | 23.3
62 | CC(C)c1nn(C)c(N2CCOCC2)c1CNCc1cscn1 | -14.5
63 | CN(C)c1nc2c(c(=O)[nH]1)Cc1ccccc1OC2 | 31.5
64 | CC(C)N1CCC2(CCCN(C(=O)c3cncn3C)C2)CC1 | -12
65 | CNC(=O)c1ccc(C2CN(C(=O)c3cncs3)CCO2)nc1 (centres undefined) | -3.2
66 | CS(=O)(=O)c1ccc(CN2C[C@@H]3OCC(=O)N(CC(N)=O)[C@@H]3C2)cc1 | -4.08
67 | O=C(CCC1CCN(C2CCSCC2)CC1)NCC1CCCO1 (centres undefined) | -12
68 | CC(CCc1ccccc1)NC(=O)CNCCCN(C)C (centres undefined) | -3.07
69 | CN(CCN1CCN(c2ccccc2)CC1)C(=O)Nc1ccncc1 | -3.63

Row | Structure (SMILES) | cytotoxicity at 70.5 h [%]
70 | Cc1nnc(N2CC[C@H]3C[C@H](C(=O)N4CCOCC4)O[C@H]3C2)s1 | -2.02
71 | CC(C)[C@]1(O)CN(C(=O)CNC(N)=O)C[C@H]1C | -0.763
72 | CC(=O)NCc1noc2c1CN(Cc1cnn(C)c1)CC2 | 2.69
73 | CCCNCC1(O)CCCN(Cc2cccc(C)c2)C1=O (centres undefined) | -3.03
74 | C[C@H]1CCCCN1CCCNc1nccc(-c2c[nH][nH]c2=O)n1 | 4.41
75 | Cc1nc2c(NC(CC(C)(C)C)c3cccnc3)ncnc2o1 (centres undefined) | -10.9
76 | O=C(C[C@@H]1COC[C@H]2CN(Cc3ccncc3)C[C@@H]12)N1CCCC1 | 11.8
77 | CS(=O)(=O)NCc1cn2c(n1)CN(C(=O)c1ccc[nH]1)CC2 | -9.01
78 | COc1ccc(CN(Cc2cnc(N)nc2)CC2CCCO2)c(OC)c1 (centres undefined) | -2.54
79 | CN1CCN(Cc2ccc(-c3ccc(C(N)=O)cc3)nc2)CC1 | -7.94
80 | COCCC1(CNC(=O)Nc2ccc(-n3ccnn3)cc2)CCC1 | 4.76
81 | O=C(CCN1CCCCO1)N1CCC(CO)(Cc2ccccc2)CC1 | -6.23
82 | O=C(c1ccco1)N1CCc2ncnc(Oc3cccnc3)c2CC1 | -0.464
83 | COc1ccccc1C(=O)N1CC(=O)N(CC2CC2)CC(O)C1 (centres undefined) | -0.352
84 | CCN(Cc1ccoc1)c1ncc(S(N)(=O)=O)s1 | -7.46
85 | O=C(CCCN1CCCCC1)N1CCC(c2nnc[nH]2)CC1 | -4.84
86 | CCn1cc(NC(=O)CN2CCC(Oc3ccc(F)cc3)CC2)c(C)n1 | 5.01
87 | Cc1noc(C)c1CCC(=O)N1CCN(CCn2cncn2)CC1 | -1.34
88 | O=C(NC1CC1)c1cc(C(F)(F)F)cc(C(=O)NC2CC2)n1 | 23
89 | O=C(O)CC1COCCN1Cc1ccccc1-c1ccccc1 (centres undefined) | 14.8
90 | CC(Cn1cc(Br)cn1)C(=O)Nc1ccn(C)n1 (centres undefined) | 7.88
91 | O=C(C1CCCN1Cc1nc(-c2ccco2)no1)N1CCSCC1 (centres undefined) | -5.08
92 | Cc1sc2ccccc2c1S(=O)(=O)NCCNC(=O)C(C)C | -7.05

Row | Structure (SMILES) | cytotoxicity at 70.5 h [%]
93 | Cc1cccc(OCCC(=O)NC(C)c2nnc3n2CCC3)c1 (centres undefined) | 2.23
94 | Cc1cc(CN(C)C(=O)C2CCC(=O)N(CC3CCCCC3)C2)n[nH]1 (centres undefined) | -8.5
95 | Cc1ccc2c(c1)CCC2NCc1c(C)nn(C)c1N1CCOCC1 (centres undefined) | -1.48
96 | O=C(O)c1ccnc(SCc2ccccc2)c1 | 32.7
97 | O=C(NCC(O)c1ccc(F)cc1F)c1ccccc1 (centres undefined) | -4.27
98 | Cc1csc(N2CCN(C(=O)CCn3cncn3)CC2)n1 | -7.97
99 | CN(CC1COCCO1)c1ncnc2cc(F)ccc12 (centres undefined) | 19
100 | CCC1(C(=O)O)CCCN(CCOCc2ccccc2)C1 (centres undefined) | -9.39
101 | COc1nc2c(cc1C(=O)NCCc1nc3c(s1)CCC3)CCC2 | 3.25
102 | O=C(C[C@@H]1COC[C@H]2CN(C3CCC3)C[C@@H]12)NCc1cccnc1 | -16.6
103 | CCN(CC)S(=O)(=O)c1cc2c3c(c1)c(C)cc(=O)n3CC2 | 3.57
104 | Cc1ccc(C(=O)O)cc1S(=O)(=O)N(C)c1cccc(C#N)c1 | -7.91
105 | Cc1ccccc1CNC(=O)c1ccccc1-n1cnc(CN)c1 | -0.745
106 | COC(=O)c1ccc(CNC(=O)CN2C[C@@H](NC(C)=O)[C@H](C(C)C)C2)o1 | -6.07
107 | Cc1ccc(CS(=O)(=O)CC(=O)NCc2ccccc2F)cc1 | -15.5
108 | O=C(CC1CC1)N1Cc2nccn2CC(COc2cccnc2)C1 (centres undefined) | -14.7
109 | CC(C)NS(=O)(=O)c1cc(C(=O)O)cc(-c2ccccc2CN(C)C)c1 | -1.54
110 | CCC(=O)N1CCC(NC2CCSCC2)C1 (centres undefined) | -8.75
111 | Cn1nc(COCC2CC2)c2c1CCN(C(=O)c1ccno1)C2 | -10.9
112 | CCCN(Cc1ccc(C#N)cc1)Cc1nnsc1Cl | 26.4
113 | CCN(C(=O)Nc1nncs1)C(C)c1cccc(OC)c1 (centres undefined) | -9.86
114 | Cn1c(C(F)(F)F)nn(CCNC(=O)CCc2ccccc2)c1=O | 22.1
